Reference: patent US8063071B2 (GlaxoSmithKline, LLC, priority 2007, dated 2011)
pIC50: −log10 of the molar value. Structures can show the parent of a compound that is named as a salt.

Legend:
[1] = target: T1, Recombinant human IKKβ (residues 1-737) (Homo sapiens, UniProt O14920); assay: IKK2 assay (TR-FRET); format: biochemical; conditions: ATP 1 μM final, read-out: pIC50 against IKK2 (converted)
T1 construct: Recombinant human IKKβ (residues 1-737); GST (C); made in house
T1 sequence (O14920 1-737): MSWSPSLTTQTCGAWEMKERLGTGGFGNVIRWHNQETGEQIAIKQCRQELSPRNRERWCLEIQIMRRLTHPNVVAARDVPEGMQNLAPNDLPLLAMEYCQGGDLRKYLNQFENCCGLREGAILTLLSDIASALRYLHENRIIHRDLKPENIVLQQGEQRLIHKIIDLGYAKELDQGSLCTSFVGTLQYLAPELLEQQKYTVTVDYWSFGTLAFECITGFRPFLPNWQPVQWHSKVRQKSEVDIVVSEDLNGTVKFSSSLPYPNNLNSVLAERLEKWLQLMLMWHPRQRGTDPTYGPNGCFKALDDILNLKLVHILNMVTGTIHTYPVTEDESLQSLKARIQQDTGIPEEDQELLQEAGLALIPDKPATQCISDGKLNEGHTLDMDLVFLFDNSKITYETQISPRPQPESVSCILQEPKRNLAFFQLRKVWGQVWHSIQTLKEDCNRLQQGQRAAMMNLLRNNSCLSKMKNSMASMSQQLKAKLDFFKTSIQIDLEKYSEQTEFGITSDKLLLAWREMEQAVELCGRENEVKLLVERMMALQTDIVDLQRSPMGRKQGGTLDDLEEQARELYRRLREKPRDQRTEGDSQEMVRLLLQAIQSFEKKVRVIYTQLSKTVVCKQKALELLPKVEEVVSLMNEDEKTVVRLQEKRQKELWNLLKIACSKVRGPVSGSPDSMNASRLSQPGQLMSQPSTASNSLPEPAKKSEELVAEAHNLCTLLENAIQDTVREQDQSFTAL
In short: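 Baculovirus-expressed C-terminal GST-tagged IKKβ (0.5-5 nM final) in HEPES pH 7.4, MgCl2, CHAPS, DTT, BSA with 1.7% DMSO; 25 nM GST-IB substrate and 1 μM ATP, 15 min at room temperature. EDTA stop; phospho-Ser32/36 detected by Eu-antibody/APC-anti-GST TR-FRET, 665/620 nm ratio.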

[2] = system: human monocyte stimulated cytokine production (TNF-α); assay: Monocyte assay (LPS-stimulated TNF-α production); format: cell-based; conditions: 24 h, 200 ng/mL LPS, TNF-α by ELISA
In short: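 Human CD14+ monocytes were purified from blood and plated at 1×10^6 cells/mL in RPMI 1640 with 10% FBS. Compound was added 30 min before stimulation with 200 ng/mL LPS (0.1% DMSO final), followed by 24 hrs at 37 C. Supernatant TNF-α was measured by ELISA, and viability by trypan blue exclusion.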

Row | SMILES | IC50 [1] | pIC50 [2]
1 | CCS(=O)(=O)N1CCC(c2c[nH]c3c(C(N)=O)cc(-c4ccc(N5CCCC5)nc4)cc23)CC1 [Example 224, 3-[1-(ethylsulfonyl)-4-piperidinyl]-5-[6-(1-pyrrolidinyl)-3-pyridinyl]-1H-indole-7-carboxamide trifluoroacetate] | ≤ 10 µM | < 6.00
2 | CCS(=O)(=O)N1CCC(c2c[nH]c3c(C(N)=O)cc(-c4csc(CNC(C)C)c4)cc23)CC1 [Example 231, 3-[1-(ethylsulfonyl)-4-piperidinyl]-5-(5-{[(1-methylethyl)amino]methyl}-3-thienyl)-1H-indole-7-carboxamide trifluoroacetate] | ≤ 10 µM | ≥ 5.82
3 | CCS(=O)(=O)N1CCC(c2c[nH]c3c(C(N)=O)cc(-c4csc(CN5CCCC5)c4)cc23)CC1 [Example 232, 3-[1-(ethylsulfonyl)-4-piperidinyl]-5-[5-(1-pyrrolidinylmethyl)-3-thienyl]-1H-indole-7-carboxamide trifluoroacetate] | ≤ 10 µM | ≥ 5.82
4 | CCNCc1cc(-c2cc(C(N)=O)c3[nH]cc(C4CCN(S(=O)(=O)CC)CC4)c3c2)cs1 [Example 233, 5-{5-[(ethylamino)methyl]-3-thienyl}-3-[1-(ethylsulfonyl)-4-piperidinyl]-1H-indole-7-carboxamide trifluoroacetate] | ≤ 10 µM | ≥ 5.82
5 | CCS(=O)(=O)N1CCC(c2c[nH]c3c(C(N)=O)cc(-c4csc(CN[C@H](C)CO)c4)cc23)CC1 [Example 234, 3-[1-(ethylsulfonyl)-4-piperidinyl]-5-[5-({[(1R)-2-hydroxy-1-methylethyl]amino}methyl)-3-thienyl]-1H-indole-7-carboxamide trifluoroacetate (salt)] | ≤ 10 µM | ≥ 5.82
6 | CCS(=O)(=O)N1CCC(c2c[nH]c3c(C(N)=O)cc(-c4csc(CN5CCCCC5)c4)cc23)CC1 [Example 235, 3-[1-(ethylsulfonyl)-4-piperidinyl]-5-[5-(1-piperidinylmethyl)-3-thienyl]-1H-indole-7-carboxamide trifluoroacetate] | ≤ 10 µM | ≥ 5.82
7 | CCS(=O)(=O)N1CCC(c2c[nH]c3c(C(N)=O)cc(-c4csc(CN5CCOCC5)c4)cc23)CC1 [Example 236, 3-[1-(ethylsulfonyl)-4-piperidinyl]-5-[5-(4-morpholinylmethyl)-3-thienyl]-1H-indole-7-carboxamide trifluoroacetate] | ≤ 10 µM | ≥ 5.82
8 | CCS(=O)(=O)N1CCC(c2c[nH]c3c(C(N)=O)cc(-c4coc(CNC)c4)cc23)CC1 [Example 237, 3-[1-(ethylsulfonyl)-4-piperidinyl]-5-{5-[(methylamino)methyl]-3-furanyl}-1H-indole-7-carboxamide trifluoroacetate] | ≤ 10 µM | ≥ 5.82
9 | CCS(=O)(=O)N1CCC(c2c[nH]c3c(C(N)=O)cc(-c4csc(C(C)N5CCCC5)c4)cc23)CC1 (stereo not shown) [Example 238, 3-[1-(ethylsulfonyl)-4-piperidinyl]-5-{5-[1-(1-pyrrolidinyl)ethyl]-3-thienyl}-1H-indole-7-carboxamide trifluoroacetate] | ≤ 10 µM | ≥ 5.82
10 | CCS(=O)(=O)N1CCC(c2c[nH]c3c(C(N)=O)cc(-c4ccc(CN5CCCC5)s4)cc23)CC1 [Example 239, 3-[1-(ethylsulfonyl)-4-piperidinyl]-5-[5-(1-pyrrolidinylmethyl)-2-thienyl]-1H-indole-7-carboxamide trifluoroacetate] | ≤ 10 µM | ≥ 5.82
11 | CCS(=O)(=O)N1CCC(c2c[nH]c3c(C(N)=O)cc(-c4ccc(CN(C)C)s4)cc23)CC1 [Example 240, 5-{5-[(dimethylamino)methyl]-2-thienyl}-3-[1-(ethylsulfonyl)-4-piperidinyl]-1H-indole-7-carboxamide trifluoroacetate] | ≤ 10 µM | ≥ 5.82
12 | CCCNCc1ccc(-c2cc(C(N)=O)c3[nH]cc(C4CCN(S(=O)(=O)CC)CC4)c3c2)s1 [Example 241, 3-[1-(ethylsulfonyl)-4-piperidinyl]-5-{5-[(propylamino)methyl]-2-thienyl}-1H-indole-7-carboxamide trifluoroacetate] | ≤ 10 µM | ≥ 5.82
13 | CCN(CC)Cc1ccc(-c2cc(C(N)=O)c3[nH]cc(C4CCN(S(=O)(=O)CC)CC4)c3c2)s1 [Example 242, 5-{5-[(diethylamino)methyl]-2-thienyl}-3-[1-(ethylsulfonyl)-4-piperidinyl]-1H-indole-7-carboxamide trifluoroacetate] | ≤ 10 µM | ≥ 5.82

Next, values leading:

Row | IC50 [1] | pIC50 [2] | SMILES
14 | ≤ 10 µM | ≥ 5.82 | CCS(=O)(=O)N1CCC(c2c[nH]c3c(C(N)=O)cc(-c4cc(CN5CCC[C@H]5COC)cs4)cc23)CC1 [Example 215, 3-[1-(ethylsulfonyl)-4-piperidinyl]-5-[4-({(2S)-2-[(methyloxy)methyl]-1-pyrrolidinyl}methyl)-2-thienyl]-1H-indole-7-carboxamide trifluoroacetate]
15 | ≤ 10 µM | ≥ 5.82 | CCS(=O)(=O)N1CCC(c2c[nH]c3c(C(N)=O)cc(-c4cc(CN5[C@H](C)CC[C@H]5C)cs4)cc23)CC1 [Example 216, 5-(4-{[(2R,5R)-2,5-dimethyl-1-pyrrolidinyl]methyl}-2-thienyl)-3-[1-(ethylsulfonyl)-4-piperidinyl]-1H-indole-7-carboxamide trifluoroacetate]
16 | ≤ 10 µM | ≥ 5.82 | CCS(=O)(=O)N1CCC(c2c[nH]c3c(C(N)=O)cc(-c4csc(CN5CCC[C@@H]5C)c4)cc23)CC1 [Example 217, 3-[1-(ethylsulfonyl)-4-piperidinyl]-5-(5-{[(2S)-2-methyl-1-pyrrolidinyl]methyl}-3-thienyl)-1H-indole-7-carboxamide]
17 | ≤ 10 µM | ≥ 5.82 | CCS(=O)(=O)N1CCC(c2c[nH]c3c(C(N)=O)cc(-c4csc(CN5CCC[C@H]5C)c4)cc23)CC1 [Example 218, 3-[1-(ethylsulfonyl)-4-piperidinyl]-5-(5-{[(2R)-2-methyl-1-pyrrolidinyl]methyl}-1′-3-thienyl)-1H-indole-7-carboxamide]
18 | ≤ 10 µM | ≥ 5.82 | CCC(c1cc(-c2cc(C(N)=O)c3[nH]cc(C4CCN(S(=O)(=O)CC)CC4)c3c2)cs1)N1CCCC1 (stereo not shown) [Example 219, 3-[1-(ethylsulfonyl)-4-piperidinyl]-5-{5-[1-(1-pyrrolidinyl)propyl]-3-thienyl}-1H-indole-7-carboxamide trifluoroacetate]
19 | ≤ 10 µM | ≥ 5.82 | CC(C)S(=O)(=O)N1CCC(c2c[nH]c3c(C(N)=O)cc(-c4csc(CN(C)C)c4)cc23)CC1 [Example 220, 5-{5-[(dimethylamino)methyl]-3-thienyl}-3-{1-[(1-methylethyl)sulfonyl]-4-piperidinyl}-1H-indole-7-carboxamide trifluoroacetate]
20 | ≤ 10 µM | ≥ 5.82 | CCS(=O)(=O)N1CCC(c2c[nH]c3c(C(N)=O)cc(-c4csc(CCNCC(C)C)c4)cc23)CC1 [Example 222, 3-[1-(ethylsulfonyl)-4-piperidinyl]-5-(5-{2-[(2-methylpropyl)amino]ethyl}-3-thienyl)-1H-indole-7-carboxamide trifluoroacetate]
21 | ≤ 10 µM | ≥ 5.82 | CCS(=O)(=O)N1CCC(c2c[nH]c3c(C(N)=O)cc(-c4csc(CCN(C)C)c4)cc23)CC1 [Example 223, 5-{5-[2-(dimethylamino)ethyl]-3-thienyl}-3-[1-(ethylsulfonyl)-4-piperidinyl]-1H-indole-7-carboxamide trifluoroacetate]
22 | ≤ 10 µM | ≥ 5.82 | CCCNc1ccc(-c2cc(C(N)=O)c3[nH]cc(C4CCN(S(=O)(=O)CC)CC4)c3c2)cn1 [Example 227, 3-[1-(ethylsulfonyl)-4-piperidinyl]-5-[6-(propylamino)-3-pyridinyl]-1H-indole-7-carboxamide trifluoroacetate]
23 | ≤ 10 µM | ≥ 5.82 | CCS(=O)(=O)N1CCC(c2c[nH]c3c(C(N)=O)cc(-c4csc(CNC)c4)cc23)CC1 [Example 230, 3-[1-(ethylsulfonyl)-4-piperidinyl]-5-{5-[(methylamino)methyl]-3-thienyl}-1H-indole-7-carboxamide trifluoroacetate]
